Results as given in paper PMC12782889, “A GmNRF5a–GmCERK1–GmCAK1 module mediates chitin/chitosan‐triggered immune response in soybean” (Journal of Integrative Plant Biology, 2025).

Legend:
GmNFR5a^ECDL153R = assay: MST binding to GmNFR5a^ECD mutant L153R; parameters: species or system soybean (Glycine max); conditions: ligand dp6
Source text: (§1) The ectodomains of GmCERK1, GmNFR5a, and mutants were cloned into the yeast expression vector pPICZαA (Thermo Fisher Scientific, Shanghai, China) through the double digestion and ligation using the restriction endonuclease EcoRI/XbaI (NEB, Suzhou, China) and T4 ligase. Then, the linearized recombinant plasmid pPICZαA‐GmCERK1 and pPICZαA‐GmNFR5a were transformed into P. pastoris X‐33. The positive colonies were selected on YPDS medium (1% w/v yeast extract, 2% w/v peptone, 2% w/v glucose, 2% w/v agar, 100 μg/mL antibiotic Zeocin (Thermo Fisher Scientific)) plates and verified by direct DNA sequencing. Protein expression was carried out initially in BMGY media (100 mM potassium phosphate pH 6.0, 1.34% w/v YNB, 4 × 10^−5% w/v biotin, 1% v/v glycerol) at 28°C with shaking (180 rpm) until the OD600 reached 2.0–6.0. The cell pellet was transferred into BMMY medium (100 mM potassium phosphate pH 6.0, 1.34% w/v YNB, 4 × 10^−5% w/v biotin, 0.5% v/v methanol) and continuously supplied with the addition of 0.5% (v/v) methanol every day for 5 d. […]
(§2) GmCERK1^ECD, GmNFR5a^ECD, and all mutants were labeled with a fluorescent dye using the Monolith Protein Labeling Kit RED‐NHS second Generation (MO‐L011). […] The data were analyzed and fitted by plotting ligand concentrations against bound fractions using the MO.Affinity Analysis v3.0.5 software. […]

GmCERK1^ECDY109R = assay: MST binding to GmCERK1^ECD mutant Y109R; parameters: species or system soybean (Glycine max); conditions: ligand dp6
Source text: as §1, §2

GmNFR5a^ECDF124R = assay: MST binding to GmNFR5a^ECD mutant F124R; parameters: species or system soybean (Glycine max); conditions: ligand dp6
Source text: as §1, §2

GmCERK1^ECDI137R = assay: MST binding to GmCERK1^ECD mutant I137R; parameters: species or system soybean (Glycine max); conditions: ligand dp6
Source text: as §1, §2

AtCERK1^ECD = biological target: T1, AtCERK1^ECD (Arabidopsis thaliana, UniProt A8R7E6); parameters: method as in Cao et al., 2014; conditions: isothermal titration calorimetry (ITC); ref Cao et al., 2014; read-out: K D for AtCERK1^ECD with CTOS; cited from earlier work
T1 construct: ectodomain of AtCERK1 (aa25–224); made in house; host or cells: Pichia pastoris X-33
T1 sequence (A8R7E6 25-224): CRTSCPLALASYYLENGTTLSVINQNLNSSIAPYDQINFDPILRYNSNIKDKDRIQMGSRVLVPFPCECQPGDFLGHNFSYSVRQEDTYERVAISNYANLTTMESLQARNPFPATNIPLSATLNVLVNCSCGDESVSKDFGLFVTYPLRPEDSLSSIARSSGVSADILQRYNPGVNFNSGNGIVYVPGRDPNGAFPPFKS

Phytophthora sojae P6497 = assay: P. sojae infection of pretreated soybean hairy roots (GFP control); assay type: in vivo, Phytophthora sojae on soybean (Glycine max); conditions: control hairy roots expressing GFP; 50 mg/L soak 12 h; 48 hpi; vs dH2O; P < 0.0001
Source text: Soybean (cultivar Williams) seeds were surface sterilized and germinated as previously described ([Kereszt et al., 2007]). Soybean cotyledons were removed from […] seedlings grown in vermiculite. Cotyledons were harvested at Day 7 by gently twisting them off the hypocotyl. Only unblemished cotyledons were employed for all protocols. Individual cotyledons were surface sterilized by wiping with an alcohol swab soaked in 70% ethanol. The alcohol swab was wrung out slightly before use, so that it was wet but not dripping. […] Hairy roots were monitored for green fluorescence production over a period of 4 weeks. For silencing in hairy roots, the transcript levels of the targeted gene and its closest paralogs were measured in fluorescent green hairy roots using qRT‐PCR to assess silencing efficiency.
For soybean etiolated hypocotyls inoculation assays, etiolated hypocotyls of soybean (cultivar Williams) were inoculated with P. sojae zoospore suspensions (100 zoospores). […] For soybean hairy‐root inoculation assays, transgenic hairy roots were soaked in CTOS/CSOS (50 mg/L) or mock (dH2O) for 12 h and then were infected with red fluorescent protein (RFP)‐labeled P. sojae strain P6497, and fluorescence was visualized in the infected area of soybean hairy root and the biomass of P. sojae was determined by qRT‐PCR at 48 hpi.

Structure (SMILES)	interaction with GmNFR5a^ECDL153R (GmNFR5a^ECDL153R)	interaction with GmCERK1^ECDY109R (GmCERK1^ECDY109R)	interaction with GmNFR5a^ECDF124R (GmNFR5a^ECDF124R)	interaction with GmCERK1^ECDI137R (GmCERK1^ECDI137R)	Kd (AtCERK1^ECD)	soybean defense against P. sojae (pathogen biomass) (Phytophthora sojae P6497)
N[C@H]1[C@H](O[C@H]2[C@H](O)[C@@H](N)[C@H](O[C@H]3[C@H](O)[C@@H](N)[C@H](O[C@H]4[C@H](O)[C@@H](N)[C@H](O[C@H]5[C@H](O)[C@@H](N)[C@H](O[C@H]6[C@H](O)[C@@H](N)C(O)O[C@@H]6CO)O[C@@H]5CO)O[C@@H]4CO)O[C@@H]3CO)O[C@@H]2CO)O[C@H](CO)[C@@H](O)[C@@H]1O (stereo partly drawn) [CSOS (dp6), chitosan oligosaccharide]	cannot interact	cannot interact	cannot interact	cannot interact		
CC(=O)N[C@H]1[C@H](O[C@H]2[C@H](O)[C@@H](NC(C)=O)[C@H](O[C@H]3[C@H](O)[C@@H](NC(C)=O)C(O)O[C@@H]3CO)O[C@@H]2CO)O[C@H](CO)[C@@H](O[C@@H]2O[C@H](CO)[C@@H](O[C@@H]3O[C@H](CO)[C@@H](O[C@@H]4O[C@H](CO)[C@@H](O)[C@H](O)[C@H]4NC(C)=O)[C@H](O)[C@H]3NC(C)=O)[C@H](O)[C@H]2NC(C)=O)[C@@H]1O (stereo partly drawn) [CTOS (dp6), chitin oligosaccharide]					455 µM	significantly bolstered
